From article PMC10766610, “DCAF1-based PROTACs with activity against clinically validated targets overcoming intrinsic- and acquired-degrader resistance” (Nature Communications, 2024)
Read-outs that look alike come from different tables or passages of the source.

Experiments:
[1] = molecular target: DCAF1(WDR) + BRD9-BD(130-250) (Homo sapiens, UniProt Q9H8M2+Q9Y4B6, E1398S); assay: SPR ternary binding assay, immobilized DCAF1(WDR), BRD9-BD(130-250) in buffer
Description: Surface plasmon resonance (SPR) experiments were performed on Biacore T200 and 8 K+ instruments (Cytiva). […] Binary complexes were analyzed with a kinetic 1:1 fit model to obtain KD values. The fit of apparent steady state RU intensities of the ternary complexes was performed using a bell-shaped curve algorithm implemented in Graphpad Prism. […] Residence times (t1/2) were calculated by the inversion of the off-rate.

[2] = molecular target: T1, DCAF1(WDR) with additional 10 µM BRD9-BD(130-250) (Homo sapiens, UniProt Q9H8M2+Q9Y4B6, E1398S); assay: DCAF1 TR-FRET, cooperative format with 10 µM BRD9-BD(130-250); type: binding; conditions: read-out: TR-FRET Q. IC50 [μM], + BRD9
T1 construct: 2 nM human DCAF1(1073-1399)_E1398S-Avi-His; human BRD9-BD(130-250) in the cooperative assay; His6 (C); GST (PreScission site) (N, cleaved yes); made in house; host or cells: DCAF1: Sf9 with BirA; BRD9: E. coli Rosetta (pGEX6P1)
T1 sequence (Q9Y4B6 1073-1399 E1398S): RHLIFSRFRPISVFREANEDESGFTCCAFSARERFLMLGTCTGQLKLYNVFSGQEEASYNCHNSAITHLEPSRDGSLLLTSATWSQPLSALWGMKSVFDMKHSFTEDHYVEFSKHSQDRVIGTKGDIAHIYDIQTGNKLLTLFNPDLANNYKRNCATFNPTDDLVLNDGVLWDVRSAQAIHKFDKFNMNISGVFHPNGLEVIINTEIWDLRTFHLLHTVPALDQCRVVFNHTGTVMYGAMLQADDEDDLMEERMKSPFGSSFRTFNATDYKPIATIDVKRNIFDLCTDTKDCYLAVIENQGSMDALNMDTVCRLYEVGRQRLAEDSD
T1 sequence (Q9H8M2 130-250): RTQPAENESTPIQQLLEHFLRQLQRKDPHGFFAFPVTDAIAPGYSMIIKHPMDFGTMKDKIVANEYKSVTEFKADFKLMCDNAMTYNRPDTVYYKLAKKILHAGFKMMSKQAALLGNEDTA
Description: Competition assay conditions consist of 20 µL total volume in white 384-well plates (Greiner), in 30 mM phosphate buffer pH 7.4 containing 140 mM NaCl, 0.01% Tween20, 1 mM TCEP and 1% final DMSO. Tested compounds at 14 different concentrations were pre-incubated at 22 °C for 30 min with a large excess of 10 µM human BTK (G389-S659) or 10 µM human BRD9-BD(130-250) in the cooperative assay or with buffer in standard binary assay. […] Samples were then incubated at 22 °C for 30 min before reading using a Tecan infinite M-1000 or PheraStar FSX (excitation 340 nm, emission 490 and 520 nm). DCAF1 protein was omitted in the negative control. IC50 fitting was carried out using an in-house developed software (Novartis Helios software application, unpublished, a publicly available alternative would be e.g., Graphpad Prism) using the methods described by Fomenko et al.[93] (regression algorithms for nonlinear dose-response curve fitting). Following normalization of activity values for the wells to % inhibition (% inhibition = [(high control-sample)/(high control-low control)] × 100). Data analysis could also be carried out using GraphPad Prism without prior normalization. The reported IC50 values are the average of at least two independent experiments.

[3] = molecular target: T2, ABL1 (Homo sapiens, UniProt P00519); assay: Immunoblot of ABL1 in HEK293T cells; type: cell-based; conditions: 6 h
T2 construct: host or cells: HEK293T
T2 sequence (P00519 whole entry): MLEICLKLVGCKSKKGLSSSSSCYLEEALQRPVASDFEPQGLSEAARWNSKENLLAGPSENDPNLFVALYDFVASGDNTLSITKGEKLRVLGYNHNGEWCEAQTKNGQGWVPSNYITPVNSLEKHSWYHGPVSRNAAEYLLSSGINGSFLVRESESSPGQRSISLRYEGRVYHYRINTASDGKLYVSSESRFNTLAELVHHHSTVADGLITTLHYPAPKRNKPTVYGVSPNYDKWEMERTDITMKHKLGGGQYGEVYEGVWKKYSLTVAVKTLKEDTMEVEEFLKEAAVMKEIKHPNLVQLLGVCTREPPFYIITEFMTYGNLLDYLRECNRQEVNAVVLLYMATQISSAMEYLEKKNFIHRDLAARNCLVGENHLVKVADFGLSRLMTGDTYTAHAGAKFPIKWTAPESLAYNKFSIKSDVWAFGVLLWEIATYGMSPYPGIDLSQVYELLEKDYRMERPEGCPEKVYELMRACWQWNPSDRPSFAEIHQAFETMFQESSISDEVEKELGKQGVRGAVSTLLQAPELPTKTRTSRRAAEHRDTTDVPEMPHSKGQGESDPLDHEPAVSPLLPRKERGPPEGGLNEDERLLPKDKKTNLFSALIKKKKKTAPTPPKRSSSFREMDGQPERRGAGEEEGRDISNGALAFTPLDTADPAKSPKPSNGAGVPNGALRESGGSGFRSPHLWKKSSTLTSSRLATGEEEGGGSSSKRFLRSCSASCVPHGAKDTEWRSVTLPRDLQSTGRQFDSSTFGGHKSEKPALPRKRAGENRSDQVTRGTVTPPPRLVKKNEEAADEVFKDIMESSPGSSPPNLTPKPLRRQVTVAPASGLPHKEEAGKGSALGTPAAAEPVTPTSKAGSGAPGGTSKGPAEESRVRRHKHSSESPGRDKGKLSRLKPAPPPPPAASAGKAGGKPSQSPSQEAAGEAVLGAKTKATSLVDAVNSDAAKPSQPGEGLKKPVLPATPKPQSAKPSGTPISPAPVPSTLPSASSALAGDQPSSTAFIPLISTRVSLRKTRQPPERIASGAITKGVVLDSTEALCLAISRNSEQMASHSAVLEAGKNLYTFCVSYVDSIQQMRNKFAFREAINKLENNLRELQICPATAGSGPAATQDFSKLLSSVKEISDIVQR
Description: Whole cell lysates for immunoblotting were prepared by pelleting cells at 4 °C (300 g) for 3 min. Cell pellets were then washed 1x with PBS and resuspended in RIPA lysis buffer (VWR, cat # 97063-270) supplemented with protease (Thermo Scientific, cat # A32955) and phosphatase (Thermo Scientific, cat # A32957) inhibitor tablets. Lysates were clarified at 16,000 × g for 15 min at 4 °C prior to quantification by Lowry assay (Bio-Rad cat # 5000113 and cat # 5000114). Whole-cell lysates were loaded into 4–20% Criterion TGX Precast 18 well gels (Bio-Rad, cat # 5671094) and separated by electrophoreses at 120 V for 1 h. The gels were transferred to a nitrocellulose membrane using the Trans-Blot Turbo (Bio-Rad) for 7 min and then blocked for 1 h at room temperature in Odyssey blocking buffer (LICOR Biosciences, cat # 927-50000). Membranes were probed with the appropriate primary antibodies (diluted 1:1000) overnight at 4 °C in 20% Odyssey blocking buffer in 1x TBST. Membranes were washed three times with 1x TBST (5 min per wash), and then incubated with IRDye goat anti-mouse (LICOR, cat # 926-32210) or goat anti-rabbit (LICOR, cat # 926-32211) secondary antibody diluted 1:10,000 in 20% Odyssey blocking buffer for 1 h at room temperature. After three 5-min washes with 1x TBST, the immunoblots were visualized using the ODYSSEY Infrared Imaging System (LICOR). […]

DCAF1(WDR) + BRD9-BD(130-250), sequence (Q9Y4B6 1073-1399 E1398S): as the sequence (Q9Y4B6 1073-1399 E1398S) above
DCAF1(WDR) + BRD9-BD(130-250), sequence (Q9H8M2 130-250): as the sequence (Q9H8M2 130-250) above

| SMILES | Kd ([1]; Kd1, apparent KD of first sigmoidal transition, in the presence of 0.2 µM BRD9-BD(130-250)) [µM] | Kd ([1]; SPR KD [μM], + BRD9, with additional BRD9-BD(130-250)) [µM] | Kd ([1]; read-out: Kd2, apparent KD of second sigmoidal transition, in the presence of 0.2 µM BRD9-BD(130-250)) [µM] | IC50 [2] [µM] | ABL1 protein levels [3] |
| --- | --- | --- | --- | --- | --- |
| COc1cc(-c2cn(C)c(=O)c3cnccc23)c(OC)cc1CN1CCC(OCCCCCC(=O)N2CCN(c3ccc4c(NCCN)nc(C5(c6ccc(Cl)cc6)CCCCC5)nc4c3)CC2)CC1 [DBr-1] | 0.02 | 0.005 | 6.11 | 0.002 |  |
| Cc1nc(Nc2ncc(C(=O)Nc3c(C)cccc3Cl)s2)cc(N2CCC(OC3CCN(CCCCCCCC(=O)N4CCN(c5ccc6c(NCCN)nc(C7(c8ccc(Cl)cc8)CCCCC7)nc6c5)CC4)CC3)CC2)n1 [DDa-1] |  |  |  |  | not |
